Target: T1, Peroxisome proliferator-activated receptor gamma (Homo sapiens, UniProt P37231)
T1 sequence (P37231 whole entry): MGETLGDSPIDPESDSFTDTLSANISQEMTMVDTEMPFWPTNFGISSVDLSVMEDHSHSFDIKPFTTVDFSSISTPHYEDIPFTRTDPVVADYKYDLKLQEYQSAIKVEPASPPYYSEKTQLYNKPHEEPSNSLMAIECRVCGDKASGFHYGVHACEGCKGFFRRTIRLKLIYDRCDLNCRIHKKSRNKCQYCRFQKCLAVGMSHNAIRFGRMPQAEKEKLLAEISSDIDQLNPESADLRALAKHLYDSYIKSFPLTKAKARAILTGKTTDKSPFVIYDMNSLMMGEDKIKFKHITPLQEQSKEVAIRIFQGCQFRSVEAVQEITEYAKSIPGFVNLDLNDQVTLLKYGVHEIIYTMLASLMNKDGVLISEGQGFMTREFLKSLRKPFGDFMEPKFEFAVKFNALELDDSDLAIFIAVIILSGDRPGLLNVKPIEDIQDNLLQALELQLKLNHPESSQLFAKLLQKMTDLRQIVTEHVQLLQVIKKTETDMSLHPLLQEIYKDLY
Description: Agonist activity at human PPARgamma expressed in NIH3T3 cells by GAL4 transactivation assay

Structure (SMILES) | EC50 [nM]
CCOC(=O)C1=C(c2ncc[nH]2)c2ccc(OCCCc3ccccc3)cc2/C1=[N+](/C)[O-] | > 1000
CCOC(=O)C1=C(c2ccc(C)cc2)c2ccc(OCCCc3ccccc3)cc2/C1=[N+](/C)[O-] | 660
CCOC(=O)C1=C(c2ccccc2)c2ccc(OC)cc2/C1=[N+](\[O-])Cc1ccccc1 | > 10000
CCOC(=O)C1=C(c2cccc(C)c2)c2ccc(OCCCc3ccccc3)cc2/C1=[N+](/C)[O-] | 300
CCOC(=O)C1=C(c2ccccc2)c2ccc(OCCC34CC5CC(CC(C5)C3)C4)cc2/C1=[N+](/C)[O-] | 840
CCOC(=O)C1=C(c2ccc(Cl)cc2)c2ccc(OCCCc3ccccc3)cc2/C1=[N+](/C)[O-] | 70
CCOC(=O)C1=C(CC)c2ccc(OCCCc3ccccc3)cc2/C1=[N+](/C)[O-] | 80
C/[N+]([O-])=C1\C=C(c2ccccc2)c2ccc(OCCN3CCOCC3)cc21 | 150
COC(=O)C1=C(c2ccccc2)c2ccc(OCCN3CCOCC3)cc2/C1=[N+](/C)[O-] | 140
CCOC(=O)C1=C(c2ccccc2)c2ccc(OC)cc2/C1=N\O | > 10000
CCOC(=O)C1=C(c2ccccc2)c2ccc(OC)cc2/C1=[N+](\[O-])CC | > 10000
C/[N+]([O-])=C1\C(C(=O)NC2CC2)=C(c2ccccc2)c2ccc(OCCN3CCOCC3)cc21 | 20
CCOC(=O)C1=C(c2ccsc2)c2ccc(OCCCc3ccccc3)cc2/C1=[N+](/C)[O-] | 190
CCOC(=O)C1=C(c2ccccc2)c2ccc(OC)cc2/C1=N\OC | 1500
CCOC(=O)C1=C(c2ccc3c(c2)OCO3)c2ccc(OCCCc3ccccc3)cc2/C1=[N+](/C)[O-] | 250
CCOC(=O)C1=C(c2ccccc2)c2ccc(OCc3ccccn3)cc2/C1=[N+](/C)[O-] | 90
